{
  "source": "patent US20150329864A1",
  "about": "“DESIGN OF OLIGONUCLEOTIDE ANALOGS AS THERAPEUTIC AGENTS” (SPRING BANK PHARMACEUTICALS, INC., priority 2010, published 2015)",
  "key": {"HCV": {"test_system": "HCV", "experiment": "Combination studies against HCV in replicon assays", "format": "cell-based", "details": "Hepatitis C virus; monotherapy; read-out: EC50 (uM), single drug"}, "[1]": {"experiment": "Cytotoxicity by neutral red dye uptake in HCV replicon cultures", "format": "cell-based", "details": "human, AVA5 HCV replicon cell line (sub-genomic CON1, genotype 1b); single drug, Table 9; read-out: CC50", "experimental": "Antiviral activity against HCV was assessed in a 3-day assay (Okuse, et al., 2005; Antiviral. Res. 65:23; Korba, et al., 2008, Antiviral Res. 77:56) using the stably-expressing HCV replicon cell line, AVA5 (sub-genomic (CON1), genotype 1b) (Blight, et al., 2000; Science 290:1972) maintained as sub-confluent cultures on 96-well plates. Antiviral activity was determined by blot hybridization analysis of intracellular HCV RNA (normalized to the level of cellular B-actin RNA in each culture sample). Cytotoxicity was assessed by neutral red dye uptake in cultures maintained in parallel plates.\nEC50, EC90, and CC50 values were calculated by linear regression analysis (MS EXCEL®, QuattroPro®) using data combined from all treated cultures Korba & Gerin, 1992, Antivir. Res. 19:55; Okuse, et al., 2005, Antivir. Res. 65:23). […]\nCombination treatments are conducted as previously described. Briefly, two agents were mixed together at a pre-determined concentration ratio. […] Analysis of drug interactions in the combination studies was determined by the use of the CALCUSYN program (Biosoft, Inc., Cambridge, United Kingdom). […]"}, "HBV-3TC-R4 LMMV": {"test_system": "HBV-3TC-R4 LMMV", "format": "cell-based", "details": "Hepatitis B virus"}, "HBV WT": {"test_system": "HBV WT", "experiment": "HepG2.2.15 cell-based HBV assay, wild type", "details": "Hepatitis B virus, HBV WT, 9 daily doses; for EC50: read-out: EC50; for EC90: read-out: EC90", "experimental": "Selected compounds were evaluated in in vitro cell-based HepG2.2.15 HBV assay.\nAntiviral analysis. For the antiviral analyses, confluent cultures of 2.2.1.5 cells were maintained on 96-well flat-bottomed tissue culture plates in RPMI1640 medium with 2% fetal bovine serum. Cultures (6 per each test concentration on two replicate plates) were treated with 9 consecutive daily doses of the test compounds. Medium was changed daily with fresh test compounds. HBV nucleic acid and protein levels were measured 24 hours after the last treatment. Extracellular (virion) HBV DNA levels were assessed by quantitative blot hybridization. Intracellular HBV DNA levels were measured by quantitative Southern blot hybridization.\nThe uptake of neutral red dye was used to determine the relative level of toxicity 24 hours following the last treatment. The absorbance of internalized dye at […] (A510) was used for the semi-quantitative analysis. Values are presented as a percentage of the average A510 values (±standard deviations) in 9 separate cultures of untreated cells maintained on the 96-well plates seeded at the same time with the identical pool of stock cells used for the antiviral analyses and maintained in an identical manner. A total of 3 cultures were treated with each concentration of the test compound."}, "RIG-I": {"molecular_target": "T1, RIG-I (Homo sapiens, UniProt O95786)", "T1 sequence (O95786 1-925)": "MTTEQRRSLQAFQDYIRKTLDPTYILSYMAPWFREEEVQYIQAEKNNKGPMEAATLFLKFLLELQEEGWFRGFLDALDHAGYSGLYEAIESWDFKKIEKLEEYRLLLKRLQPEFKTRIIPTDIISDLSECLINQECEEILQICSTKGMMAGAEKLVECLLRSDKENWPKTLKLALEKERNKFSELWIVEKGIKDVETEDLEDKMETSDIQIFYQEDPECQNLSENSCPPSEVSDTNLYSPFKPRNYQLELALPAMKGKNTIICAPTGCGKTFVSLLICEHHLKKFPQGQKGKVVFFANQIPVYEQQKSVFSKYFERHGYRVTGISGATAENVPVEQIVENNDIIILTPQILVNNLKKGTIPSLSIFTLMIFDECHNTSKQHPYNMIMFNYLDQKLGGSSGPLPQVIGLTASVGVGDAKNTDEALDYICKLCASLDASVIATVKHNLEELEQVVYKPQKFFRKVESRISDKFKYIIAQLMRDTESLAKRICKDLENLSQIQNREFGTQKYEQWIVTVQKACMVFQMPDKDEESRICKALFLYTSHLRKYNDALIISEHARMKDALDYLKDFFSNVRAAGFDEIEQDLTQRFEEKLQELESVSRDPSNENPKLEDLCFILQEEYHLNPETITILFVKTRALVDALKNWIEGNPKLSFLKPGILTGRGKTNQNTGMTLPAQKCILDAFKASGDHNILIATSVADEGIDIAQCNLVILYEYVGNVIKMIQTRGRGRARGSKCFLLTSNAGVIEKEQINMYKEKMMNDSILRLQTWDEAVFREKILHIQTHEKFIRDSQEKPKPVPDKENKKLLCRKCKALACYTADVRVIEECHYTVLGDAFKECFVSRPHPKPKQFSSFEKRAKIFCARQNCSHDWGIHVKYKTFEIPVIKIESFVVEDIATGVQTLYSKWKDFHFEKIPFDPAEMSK", "experiment": "RIG-I translocation on dsRNA, single-molecule PIFE assay", "format": "biochemical", "details": "PIFE assay", "experimental": "An in vitro single-molecule fluorescence assay termed PIFE (protein induced fluorescence enhancement) was employed to monitor such movement (Myong, S. et al., Science, 323, 1070, 2009).\nFor quantitation of RIG-I translocation, Single molecule PIFE yields were estimated. Single molecule PIFE yields are obtained from several hundred molecules simultaneously, allowing statistically reliable data collection.\nThe translocation as above was carried out using different concentrations of nucleotide compound.\nA standard dsRNA (25 bp) was used as a main substrate for RIG-I translocation assay. […] The ratio between rapid (stimulated) translocation and slow translocation would be accounted for in the estimation of compound strength. In order to quantify the affinity of the compound to RIG-I or to RNA substrate, various concentrations of the compound (1-100 μM range) were used in the assay. This enabled the calculation of the association/dissociation constant for each compound, which was a useful measure to apply in cell-based evaluation of compound potency.\nThe same translocation assay was used on dsRNA, which contains […] moiety with and without the compound."}, "human hepatitis B virus [2]": {"test_system": "human hepatitis B virus", "experiment": "Anti-HBV activity in the HBV transgenic mouse model, oral administration", "format": "in vivo, transgenic mice", "details": "10 mg/kg/d, oral, once daily 14 days", "experimental": "Compound 6k was evaluated for anti-HBV activity in the transgenic mouse model of HBV infection. Male transgenic mouse infected with HBV, with age ranging from 78 to 108 days were used. Compound 6k was initially evaluated at a single dose of 300 mg/kg, administered daily for 14 days by oral gavage. The compounds were administered in citric acid and adefovir dipivoxil was used as a positive control. A control group which received vehicle was used a negative control. Following the treatment, mice were sacrificed and liver tissue analyzed for HBV DNA using Southern blot analysis. The data was statistically evaluated using Kruskall-Wallis non-parametric ANOVA.\n(§1) (a) Male and female transgenic mice (founder 1.3.32) were infected with human hepatitis B virus. Following infection, animals were orally administered Compound 6k, or a placebo of 0.05 M citric acid, pH 2.0 once daily for 14 days. Dosage was 300 mg/kg/d for Compound 6k. The positive control, ADV, was administered at 10 mg/kg/d.\nas §1, with “Male” for “(a) Male”, “add,” for “acid,”, “Dosages were 100, 10.5 and 1” for “Dosage was 300”, “6K.” for “6k.”"}, "human hepatitis B virus [3]": {"test_system": "human hepatitis B virus", "experiment": "Anti-HBV activity in the HBV transgenic mouse model, oral administration", "format": "in vivo, transgenic mice", "details": "p.o., qd × 14 d"}, "hepatitis B virus (HBV)": {"test_system": "hepatitis B virus (HBV)", "experiment": "Effect of i.p. administration on hepatitis B virus in transgenic mice", "format": "in vivo", "experimental": "Compound 5 was evaluated in transgenic mice expressing hepatitis B virus (HBV). […] Its activity was also similar to the adefovir dipivoxil (ADV) anti-HBV activity; however, the two compounds seemed to suppress different HBV DNA species. […] In contrast, Compound 5 appeared to indiscriminately remose all HBV DNA species, including the bands typically left by ADV, which may reflect a different mechanism of action other than classical chain termination. Serum HBe, liver HBs, and HBc were not affected by Compound 5 treatment, which is consistent in transgenic mice with compounds that block viral synthesis “downstream” from mRNA synthesis, such as blockage of polymerase activities. A minimal effective dosage was determined to be between 1.6-0.5 mg/kg/day, which was similar to ADV minimal effective dosage of 1.0 mg/kg/day (Table 8)."}},
  "data": [
    {"smiles": "NC(=O)c1ncn([C@@H]2O[C@H](CO)[C@@H](O)[C@H]2O)n1", "note": "[Ribavirin]", "values": [
      {"measurement": "EC50", "setting": "HCV", "result": "> 30", "unit": "µM"}
    ]},
    {"smiles": "CCC[C@H](NC(=O)[C@@H]1[C@H]2CCC[C@H]2CN1C(=O)[C@@H](NC(=O)[C@@H](NC(=O)c1cnccn1)C1CCCCC1)C(C)(C)C)C(=O)C(=O)NC1CC1", "note": "[Vertex (telaprevir), telaprevir, reference compound]", "values": [
      {"measurement": "EC50", "setting": "HCV", "result": 0.25, "unit": "µM"},
      {"measurement": "CC50 at 3 day", "setting": "[1]", "result": "< 80000", "unit": "nM"}
    ]},
    {"smiles": "Nc1ccn([C@@H]2CS[C@H](CO)O2)c(=O)n1", "note": "[Compound 3TC, Lamivudine]", "values": [
      {"measurement": "EC50", "setting": "HBV-3TC-R4 LMMV", "result": "> 100000", "unit": "nM"},
      {"measurement": "EC90", "setting": "HBV-3TC-R4 LMMV", "result": "> 100000", "unit": "nM"},
      {"measurement": "EC50", "setting": "HBV WT", "result": 200, "unit": "nM"},
      {"measurement": "EC90", "setting": "HBV WT", "result": 700, "unit": "nM"}
    ]},
    {"smiles": "CO[C@H]1C(OP(=O)(O)OC[C@H]2O[C@@H](n3cnc4c(N)ncnc43)CC2O)[C@@H](COP(=O)(O)OP(=O)(O)OP(=O)(O)O)O[C@H]1n1ccc(=O)[nH]c1=O", "note": "(some centres unmarked) [SB 80]", "values": [
      {"measurement": "RIG-I translocation on dsRNA (activity in words)", "setting": "RIG-I", "result": "varying degrees of RIG-I translocation"}
    ]},
    {"smiles": "CC(C)(C)C(=O)OCOP(=O)(COCCn1cnc2c(N)ncnc21)OCOC(=O)C(C)(C)C", "note": "[ADV, adefovir dipivoxil, reference compound]", "values": [
      {"measurement": "Liver HBV RNA (log transcripts ± sd)", "setting": "human hepatitis B virus [2]", "result": "10.5 ± 0.4", "unit": "log transcripts"},
      {"measurement": "QPCR Liver HBV DNA (pg/μg mean ± sd)", "setting": "human hepatitis B virus [2]", "result": "1.7 ± 1.1", "unit": "pg/µg"},
      {"measurement": "Southern blot Liver HBV DNA (pg/μg mean ± sd)", "setting": "human hepatitis B virus [2]", "result": "0.9 ± 1.1", "unit": "pg/µg"},
      {"measurement": "EC50", "setting": "HBV-3TC-R4 LMMV", "result": 2200, "unit": "nM"},
      {"measurement": "EC90", "setting": "HBV-3TC-R4 LMMV", "result": 8300, "unit": "nM"},
      {"measurement": "Liver HBV DNA Southern blot (pg/μg mean ± sd)", "setting": "human hepatitis B virus [3]; 0.032 mg/kg/d", "result": "8.3 ± 11.3 (3) pg/μg"},
      {"measurement": "Liver HBV DNA Southern blot (pg/μg mean ± sd)", "setting": "human hepatitis B virus [3]; 0.10 mg/kg/d", "result": "15.6 ± 13.7 (4) pg/μg"},
      {"measurement": "EC50", "setting": "HBV WT", "result": 1500, "unit": "nM"},
      {"measurement": "EC90", "setting": "HBV WT", "result": 7000, "unit": "nM"},
      {"measurement": "Liver HBV DNA (mean pg viral/μg cellular DNA ± stdev)", "setting": "hepatitis B virus (HBV); 10 mg/kg/d, once daily 14 days", "result": "2.7 ± 1.4 (9) pg viral/μg cellular DNA"},
      {"measurement": "Serum HBV DNA (mean log10 genome equivalents/mL serum ± stdev)", "setting": "hepatitis B virus (HBV); 10 mg/kg/d, once daily 14 days", "result": "4.9 ± 0.4 (9) log10 genome equivalents/mL serum"},
      {"measurement": "minimal effective dosage", "setting": "hepatitis B virus (HBV); HBV transgenic mice", "result": 1.0, "unit": "mg/kg/day"}
    ]},
    {"smiles": "Nc1ncnc2c1ccn2[C@H]1CC(OP(=O)(O)OC[C@H]2O[C@@H](n3cnc4c(N)ncnc43)CC2O)[C@@H](COP(=O)(O)OP(=O)(O)OP(=O)(O)O)O1", "note": "(some centres unmarked) [SB 90]", "values": [
      {"measurement": "RIG-I translocation on dsRNA (activity in words)", "setting": "RIG-I", "result": "varying degrees of RIG-I translocation"}
    ]},
    {"smiles": "CO[C@H]1C(OP(=O)(O)OC[C@H]2O[C@@H](n3cnc4c(N)ncnc43)CC2O)[C@@H](CO)O[C@H]1n1ccc(=O)[nH]c1=O", "note": "(some centres unmarked) [SB 70]", "values": [
      {"measurement": "RIG-I translocation on dsRNA (activity in words)", "setting": "RIG-I", "result": "varying degrees of RIG-I translocation"}
    ]},
    {"smiles": "CC(C)[C@H](N)C(=O)O[C@@H]1[C@@H](CO)O[C@@H](n2ccc(N)nc2=O)[C@]1(C)O", "note": "[2C MeCyt (NM 283)]", "values": [
      {"measurement": "EC50", "setting": "HCV", "result": 1.4, "unit": "µM"}
    ]}
  ]
}
